# From paper PMC5584805 (Biochemistry, 2016)
# “And” between values parts separate entries of the source, which are not always exact repeats. Identical values can stand only once. Like-named read-outs stand apart in the source and are kept apart here. Marks after values point to notes of the source that are not given here.
# Experiments:
# [1] = target: T1, Escherichia coli CTP synthetase (EcCTPS) (Escherichia coli, UniProt P0A7E5); test: CTP synthesis assay; settings: for IC50^ox/IC50^red: ratio of oxidized to reduced form IC50, standard conditions; for apparent kcat at 2 μM EcCTPS: annealing at 40 μM EcCTPS; for EC50: EC50 (activation); for Ki: Ki (two-site model); for Kd: best fit
# EcCTPS = EcCTPS (Escherichia coli, UniProt P0A7E5); test: Ammonia-dependent CTP synthesis; format: biochemical; settings: Figure S6
# E277R EcCTPS = E277R EcCTPS (Escherichia coli, UniProt P0A7E5, E277R); test: CTP synthesis assay, filament-blocking mutant E277R EcCTPS; format: biochemical
# [2] = target: T1, Escherichia coli CTP synthetase (EcCTPS); settings: read-out: IC50 (inhibition of CTP synthesis); higher GTP concentrations; cited from earlier work
# [3] = tested on: CTPS glutamine hydrolysis; settings: low concentrations (0–200 μM); cited from earlier work
# [4] = standard: 200 nM EcCTPS, 1.5 mM ATP, 600 μM UTP, 10 mM glutamine, 200 μM GTP (unless GTP titrated), linear extrapolation
# [5] = inhibitor alone, activating GTP (50 or 200 μM)
# [6] = two ligands present (second inhibitor)
# [7] = IC50, standard: 200 nM EcCTPS, 1.5 mM ATP, 600 μM UTP, 10 mM glutamine, 200 μM GTP (unless GTP titrated), linear extrapolation
# [8] = 100 nM enzyme, other substrates saturating, 200 μM GTP
# [9] = limiting substrate titrated, other substrates saturating, 200 μM GTP, 37 °C
# T1 sequence (P0A7E5 whole entry): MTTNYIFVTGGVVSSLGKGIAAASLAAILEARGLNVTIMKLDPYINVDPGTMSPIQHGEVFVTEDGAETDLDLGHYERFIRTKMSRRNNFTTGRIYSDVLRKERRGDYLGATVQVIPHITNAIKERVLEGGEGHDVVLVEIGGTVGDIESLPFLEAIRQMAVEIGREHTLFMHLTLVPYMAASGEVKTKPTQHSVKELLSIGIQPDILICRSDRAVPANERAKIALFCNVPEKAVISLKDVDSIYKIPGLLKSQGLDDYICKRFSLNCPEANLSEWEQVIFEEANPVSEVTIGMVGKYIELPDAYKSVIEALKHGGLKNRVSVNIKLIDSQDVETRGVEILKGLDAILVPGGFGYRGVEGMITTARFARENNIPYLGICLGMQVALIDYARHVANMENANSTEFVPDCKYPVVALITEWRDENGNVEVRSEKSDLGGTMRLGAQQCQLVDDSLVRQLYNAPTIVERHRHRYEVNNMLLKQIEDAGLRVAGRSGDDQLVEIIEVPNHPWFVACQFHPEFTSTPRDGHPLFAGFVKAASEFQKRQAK
# Chain of E277R EcCTPS (P0A7E5 whole entry E277R): as the sequence (P0A7E5 whole entry) above, with E277R counted along it
# Chain of EcCTPS (P0A7E5 whole entry): as the sequence (P0A7E5 whole entry) above
smiles,measurement,setting,value
"NC(=O)C1=CN([C@@H]2O[C@H](COP(=O)(O)OP(=O)(O)OC[C@H]3O[C@@H](n4cnc5c(N)ncnc54)[C@H](OP(=O)(O)O)[C@@H]3O)[C@@H](O)[C@H]2O)C=CC1 [NADPH, 1,4 dihydronicotinamide adenine dinucleotide 2’-phosphate (reduced)]",IC50^ox/IC50^red,[1],2.8
same,IC50,[1]; [4],450 ± 20 µM
"NC(=O)C1=CN([C@@H]2O[C@H](COP(=O)(O)OP(=O)(O)OC[C@H]3O[C@@H](n4cnc5c(N)ncnc54)[C@H](O)[C@@H]3O)[C@@H](O)[C@H]2O)C=CC1 [NADH, 1,4 dihydronicotinamide adenine dinucleotide (reduced)]",IC50,"[1]; 50 μM GTP, otherwise standard",770 ± 30 µM
same,dependence of inhibition potency on enzyme concentration,[1]; Figure S4,independent of enzyme concentration from 50 to 400 nM
same,inhibition,"[1]; at 1250 μM, standard conditions",greater than 95%
same,increase of inhibition potency,[1]; by 400 μM CTP,~ 2.1 fold
same,K2/K1 (sequential binding model),[1]; [5],4–40
same,K3/K2 (sequential binding model),[1]; [5],0.2–0.8
same,IC50^ox/IC50^red,[1],3.7
same,IC50,[1]; [4],470 ± 40 µM
same,K2/K1 (sequential binding model),[1]; [6],0.4–0.8
same,K3/K2 (sequential binding model),[1]; [6],40–250
same,effect on ammonia-dependent synthesis,EcCTPS,inhibits
same,dose–response of E277R compared with wild-type,"E277R EcCTPS; 200 nM enzyme, 0–1500 μM NADH",no significant differences between wild-type and mutant
"C[n+]1cccc(C(N)=O)c1 [1MeN, 1-methylnicotinamide]",inhibition at 3000 µM,[1],< 25%
same,IC50,[1]; [7],~4000 µM
"Nc1nc2c(ncn2[C@@H]2O[C@H](COP(=O)(O)OP(=O)(O)OP(=O)(O)O)[C@@H](O)[C@H]2O)c(=O)[nH]1 [GTP, guanosine-5’-triphosphate]",kact (two-site activation/inhibition model),"[1]; 200 nM WT, no other inhibitor",10.7 s⁻¹
same,ninh (two-site model),"[1]; 200 nM WT, no other inhibitor",4.7
same,kact (two-site model),[1]; 4 μM WT,4.7 s⁻¹
same,ninh (two-site model),[1]; 4 μM WT,4.1
same,enzyme concentration for 50% autoinhibition,[1]; 50 μM GTP,6.1 µM
same,apparent kcat at 2 μM EcCTPS,[1]; 50 μM GTP,2.9 s⁻¹
same,enzyme concentration for 50% autoinhibition,[1]; 200 μM GTP,3.9 µM
same,apparent kcat at 2 μM EcCTPS,[1]; 200 μM GTP,5.0 ± 0.1 s⁻¹
same,enzyme concentration for 50% autoinhibition,[1]; 500 μM GTP,2.8 µM
same,apparent kcat at 2 μM EcCTPS,[1]; 500 μM GTP,2.7 ± 1.0 s⁻¹
same,EC50,[1]; 4 μM WT EcCTPS,27 ± 7 µM
same,EC50,"[1]; standard: 200 nM EcCTPS, 1.5 mM ATP, 600 μM UTP, 10 mM glutamine",~38 µM and 38 µM
same,IC50,"[1]; IC50, 4 μM WT EcCTPS",455 ± 46 µM
same,IC50,[1]; [7],540 ± 60 µM
same,Ki,"[1]; 200 nM WT, no other inhibitor",301 µM
same,Ki,[1]; 4 μM WT,221 µM
same,optimal GTP concentration,[1]; in presence of 500 μM NADH,approximately 100 μM
same,concentration of maximum activation,[1]; standard conditions,~ 200 μM
same,IC50,[2],~500 µM
same,activation of glutamine hydrolysis,[3],up to 50 fold
same,EC50,E277R EcCTPS,46 ± 6 µM
same,IC50,E277R EcCTPS,697 ± 4 µM
same,Ki,E277R EcCTPS,342 µM
same,kact (two-site model),E277R EcCTPS; 200 nM E277R,10.7 s⁻¹
same,ninh (two-site model),E277R EcCTPS; 200 nM E277R,3.8
"NC(=O)c1ccc[n+]([C@@H]2O[C@H](COP(=O)([O-])OP(=O)(O)OC[C@H]3O[C@@H](n4cnc5c(N)ncnc54)[C@H](OP(=O)(O)O)[C@@H]3O)[C@@H](O)[C@H]2O)c1 [NADP^+, nicotinamide adenine dinucleotide 2’-phosphate (oxidized)]",IC50,[1]; [4],1280 ± 50 µM
"Nc1ccn([C@@H]2O[C@H](COP(=O)(O)OP(=O)(O)OP(=O)(O)O)[C@@H](O)[C@H]2O)c(=O)n1 [CTP, cytidine-5’-triphosphate]",inhibition at 750 µM,[1],85%
same,"limiting slope of Hill plot, high concentration range","[1]; 50 μM UTP, 100 nM EcCTPS",−1.9 ± 0.3
same,"limiting slope of Hill plot, low concentration range","[1]; 50 μM UTP, 100 nM EcCTPS",−0.6 ± 0.2
same,IC50,"[1]; IC50, 50 μM GTP, otherwise standard",620 ± 30 µM
same,IC50,"[1]; IC50, 500 μM GTP, otherwise standard",220 ± 60 µM
same,IC50,[1]; [7],~370 µM and 370 µM
same,Kd,"[1]; K1 (four-site sequential binding model), standard conditions",446 µM
same,Kd,"[1]; K2 (four-site sequential binding model), standard conditions",2120 µM
same,Kd,"[1]; K3 (four-site sequential binding model), standard conditions",1170 µM
same,Kd,"[1]; K4 (four-site sequential binding model), standard conditions",7.5 µM
same,increase of inhibition potency,[1]; by 500 μM NADH,2.3 fold
same,IC50,"[1]; fit IC50 value (four-site sequential binding model), standard conditions",385 µM
same,K2/K1 (sequential binding model),[1]; [5],4–40
same,K3/K2 (sequential binding model),[1]; [5],0.2–0.8
same,IC50 relative to UTP concentration (fold lower),[1]; saturating UTP (600 μM),1.6 fold
same,average slope of Hill plot,[1]; standard conditions,−2.0
same,K2/K1 (sequential binding model),[1]; [6],0.4–0.8
same,K3/K2 (sequential binding model),[1]; [6],40–250
"CN1C=CCC(C(N)=O)=C1 [1MDHN, 1-methyl 1,4-dihydronicotinamide]",increase of inhibition potency,[1]; by 400 μM CTP,more than 2 fold
same,K2/K1 (sequential binding model),[1]; [5],4–40
same,K3/K2 (sequential binding model),[1]; [5],0.2–0.8
same,IC50^ox/IC50^red,[1],>28
same,IC50,[1]; [4],140 ± 10 µM
"Nc1ncnc2c1ncn2[C@@H]1O[C@H](COP(=O)(O)OP(=O)(O)O)[C@@H](O)[C@H]1O [ADP, adenosine 5’-diphosphate]",inhibition at 3000 µM,[1],35%
same,IC50,[1]; [7],~4500 µM
"NC(=O)c1ccc[n+]([C@@H]2O[C@H](COP(=O)([O-])OP(=O)(O)OC[C@H]3O[C@@H](n4cnc5c(N)ncnc54)[C@H](O)[C@@H]3O)[C@@H](O)[C@H]2O)c1 [NAD^+, nicotinamide adenine dinucleotide (oxidized)]",fold less effective inhibition than NADH,[1]; standard conditions,~ 3 fold
same,IC50,[1]; [4],1700 ± 70 µM
NC(=O)CC[C@H](N)C(=O)O [glutamine],"Hill coeff, nH",[1]; [8],1.1 ± 0.1 (11)
same,S0.5,[1]; [8],360 ± 20^e μM
"O=c1ccn([C@@H]2O[C@H](COP(=O)(O)OP(=O)(O)OP(=O)(O)O)[C@@H](O)[C@H]2O)c(=O)[nH]1 [UTP, uridine-5’- triphosphate]","Hill coeff, nH",[1]; [8],1.3 ± 0.2
same,S0.5,[1]; [8],57 ± 8 µM
same,"Hill coeff, nH",[1]; 150 μM ATP (subsaturating),1.8 ± 0.1 (6)
same,S0.5,[1]; 150 μM ATP (subsaturating),200 ± 40 µM
same,"Hill coeff, nH",[1]; [9],1.4 ± 0.3 (23)^b
"Nc1ncnc2c1ncn2[C@@H]1O[C@H](COP(=O)(O)OP(=O)(O)OP(=O)(O)O)[C@@H](O)[C@H]1O [ATP, adenosine 5’-triphosphate]","Hill coeff, nH",[1]; [8],1.7 ± 0.3
same,S0.5,[1]; [8],126 ± 13 µM
same,S0.5,[1]; 50 μM GTP,81 ± 5 µM
same,"Hill coeff, nH",[1]; 60 μM UTP,1.9 ± 0.4 (5)
same,S0.5,[1]; 60 μM UTP,310 ± 20 µM
same,S0.5,[1]; 500 μM GTP,155 ± 25 µM
same,"Hill coeff, nH",[1]; [9],1.7 ± 0.2 (18)^c
